From publication doi:10.1101/2024.08.19.608619, “Discovery of potent SARS-CoV-2 nsp3 macrodomain inhibitors uncovers lack of translation to cellular antiviral response” (bioRxiv, 2024)
In brackets after ≈: the same amount, converted by molar mass.

Assays:
[1] = Hepatic microsomal stability, MLM; format: in vitro ADME
[2] = Hepatic microsomal stability, HLM; format: in vitro ADME, human; conditions: In vitro human liver microsomal stability; for perc_remaining_no_cofactor: no cofactor
[3] = In vitro kinetic solubility; conditions: In vitro kinetic solubility, ph 7.4
[4] = Permeability Papp (AB) MDR1/MDCKII; conditions: In vitro MDR1-MDCKII permeability; for papp_a_to_b_mean: A to B; for perc_recovery_a_to_b_mean: recovery A to B
[5] = LogD; conditions: pH 7.4; In vitro LogD
[6] = In vitro mouse liver microsomal stability
[7] = In vitro mouse liver microsomal stability, no cofactor
[8] = In vitro mouse liver microsomal stability; no cofactor

SMILES	clint [1, 6]	perc_remaining [1, 6]	t_half [1, 6]	perc_remaining_no_cofactor [1, 7]	clint [2]	perc_remaining [2]	t_half [2]	perc_remaining_no_cofactor [2]	solubility_mean [3]	papp_a_to_b_mean ([4]; mean)	perc_recovery_a_to_b_mean ([4]; mean)	logd [5]	perc_remaining_no_cofactor [1, 8]	papp_a_to_b_mean ([4]; no inhibitor)	perc_recovery_a_to_b_mean ([4]; no inhibitor)
CC(C)[C@H](Nc1ncnc(N)c1Cl)c1ccc2c(c1)S(=O)(=O)CCC2 (racemic) [ASAP-0010739]	204.0 µL/min/mg	4.0%	8.2 min	102.0%	79.0 µL/min/mg	27.0%	21.0 min	101.0%	≥ 400 µM	10.1 ×10⁻⁶ cm/s	58.5%	2.4	–	–	–
O=C(Nc1cccc2c(C(=O)N[C@H]3c4ccccc4C[C@H]3C(=O)O)c[nH]c12)NC1CC1 (racemic) [ASAP-0000627]	4.0 µL/min/mg	95.0%	453.6 min	–	6.0 µL/min/mg	88.0%	279.8 min	86.0%	≥ 400 µM	1.8 ×10⁻⁶ cm/s	81.0%	-0.05	105.0%	–	–
CC(C)[C@@H](Nc1ncnc2[nH]c(-c3cnn(CC(N)=O)c3)cc12)c1ccc2c(n1)OCCO2 [ASAP-0008646]	12.0 µL/min/mg	83.0%	145.2 min	104.0%	14.0 µL/min/mg	77.0%	120.2 min	95.0%	385 µM (≈ 173 µg/mL)	2.46 ×10⁻⁶ cm/s	73.0%	2.4	–	–	–
COCCNC(=O)c1c[nH]c2ncnc(N[C@H](c3ccc4c(c3)S(=O)(=O)CCC4)C(C)C)c12 (racemic) [ASAP-0008650]	888.0 µL/min/mg	0.0%	1.9 min	99.0%	540.0 µL/min/mg	0.0%	3.1 min	106.0%	378 µM (≈ 178 µg/mL)	1.62 ×10⁻⁶ cm/s	73.3%	2.8	–	–	–
CC(C)[C@H](Nc1ncnc2[nH]cc(C(=O)NC3CC3)c12)c1ccc2c(c1)S(=O)(=O)CCC2 (single isomer, unassigned) [ASAP-0011247]	42.0 µL/min/mg	50.0%	39.5 min	102.0%	5.0 µL/min/mg	90.0%	320.1 min	112.0%	19 µM (≈ 8.62 µg/mL)	–	–	3.0	–	1.27 ×10⁻⁶ cm/s	71.5%
CC(C)[C@H](Nc1ncnc2[nH]c(-c3cnn(CC(N)=O)c3)cc12)c1ccc2c(c1)S(=O)(=O)CCC2 (racemic) [ASAP-0008679]	61.0 µL/min/mg	37.0%	27.4 min	–	116.0 µL/min/mg	15.0%	14.4 min	95.0%	341 µM (≈ 168 µg/mL)	0.32 ×10⁻⁶ cm/s	79.9%	1.9	109.0%	–	–
CNC(=O)c1c[nH]c2ncnc(N[C@H](c3ccc4c(c3)NC(=O)CO4)C(C)C)c12 (racemic) [ASAP-0008637]	113.0 µL/min/mg	16.0%	14.8 min	95.0%	86.0 µL/min/mg	23.0%	19.5 min	98.0%	28 µM (≈ 11 µg/mL)	4.26 ×10⁻⁶ cm/s	97.4%	3.2	–	–	–
CNC(=O)c1cc2c(N[C@@H](c3ccc4c(c3)S(=O)(=O)CCC4)C(C)C)ncnc2[nH]1 [ASAP-0008685]	46.0 µL/min/mg	47.0%	36.5 min	–	77.0 µL/min/mg	25.0%	21.7 min	101.0%	369 µM (≈ 158 µg/mL)	0.46 ×10⁻⁶ cm/s	104.0%	2.4	100.0%	–	–
CC(C)[C@@H](Nc1ncnc2[nH]c(-c3cnn(C)c3C#N)cc12)c1ccc2c(n1)NC(=O)CO2 [ASAP-0008644]	145.0 µL/min/mg	9.0%	11.5 min	92.0%	70.0 µL/min/mg	30.0%	23.7 min	97.0%	29 µM (≈ 12.9 µg/mL)	9.83 ×10⁻⁶ cm/s	91.2%	3.7	–	–	–
CNC(=O)c1c[nH]c2ncnc(N[C@@H](c3ccc4c(c3)OCCO4)C(C)C)c12 [ASAP-0008406]	88.0 µL/min/mg	20.0%	19.0 min	–	79.0 µL/min/mg	27.0%	21.2 min	113.0%	319 µM (≈ 122 µg/mL)	16.2 ×10⁻⁶ cm/s	92.4%	3.6	95.0%	–	–
CC(C)[C@H](Nc1ncnc2[nH]c(-c3cnn(C)c3C#N)cc12)c1ccc2c(c1)OCCO2 [ASAP-0010980]	257.0 µL/min/mg	2.0%	6.5 min	113.0%	706.0 µL/min/mg	1.0%	2.4 min	103.0%	15 µM (≈ 6.44 µg/mL)	–	–	3.3	–	5.56 ×10⁻⁶ cm/s	39.3%
CC(C)[C@@H](Nc1ncnc2[nH]c(-c3cnn(C)c3C#N)cc12)c1ccc2c(c1)OCCO2 [ASAP-0011033]	129.0 µL/min/mg	13.0%	13.0 min	106.0%	47.0 µL/min/mg	46.0%	35.4 min	101.0%	20 µM (≈ 8.59 µg/mL)	–	–	3.4	–	5.11 ×10⁻⁶ cm/s	31.2%
CC(C)[C@H](Nc1ncnc2[nH]c(-c3cnn(CC(N)=O)c3)cc12)c1ccc2c(c1)OCCO2 [ASAP-0008449]	16.0 µL/min/mg	80.0%	103.7 min	104.0%	47.0 µL/min/mg	43.0%	35.4 min	102.0%	280 µM (≈ 125 µg/mL)	–	–	2.9	–	1.09 ×10⁻⁶ cm/s	87.8%
CC(C)[C@H](Nc1ncnc2[nH]c(C(=O)N[C@H]3CCN(C)C3)cc12)c1ccc2c(c1)S(=O)(=O)CCC2 [ASAP-0012334]	1.0 µL/min/mg	98.0%	1540.5 min	97.0%	11.0 µL/min/mg	80.0%	149.8 min	98.0%	396 µM (≈ 197 µg/mL)	–	–	1.4	–	0.175 ×10⁻⁶ cm/s	89.9%
CC(C)[C@@H](Nc1ncnc2[nH]c(-c3cnn(CC(=O)N(C)C)c3)cc12)c1ccc2c(c1)S(=O)(=O)CCC2 [ASAP-0013747]	31.0 µL/min/mg	59.0%	53.8 min	102.0%	297.0 µL/min/mg	1.0%	5.6 min	99.0%	256 µM (≈ 134 µg/mL)	–	–	2.2	–	0.555 ×10⁻⁶ cm/s	78.8%
CC(C)[C@H](Nc1ncnc2[nH]cc(C(N)=O)c12)c1ccc2c(c1)OCCO2 (racemic) [ASAP-0008399]	142.0 µL/min/mg	9.0%	11.7 min	98.0%	143.0 µL/min/mg	9.0%	11.7 min	110.0%	375 µM (≈ 138 µg/mL)	11.1 ×10⁻⁶ cm/s	90.0%	3.2	–	–	–
CC(C)[C@@H](Nc1ncnc2[nH]c(-c3cnn(C)c3)cc12)c1ccc2c(c1)S(=O)(=O)CCC2 [ASAP-0008678]	155.0 µL/min/mg	7.0%	10.8 min	–	141.0 µL/min/mg	10.0%	11.9 min	102.0%	94 µM (≈ 42.4 µg/mL)	1.73 ×10⁻⁶ cm/s	85.6%	3.3	102.0%	–	–
